According to patent publication US8765776B2, “Antihypertensive pharmaceutical composition” (Boryung Pharmaceutical Co., Ltd., priority 2011, dated 2014):
Where a name gives a salt, the structure may show the parent alone.

Legend:
[1] = tested on: spontaneously hypertensive rats (SHR); assay: 4-week repeated oral administration antihypertensive test in spontaneously hypertensive rats (non-invasive tail-cuff CODA-6); type: in vivo, rat; settings: 4 weeks; for Antihypertensive degree with consecutive 4-week administration of drugs, as compared to blood pressure prior to administration (Mean): n=8, F1 = Fimasartan potassium trihydrate 3 mg/kg, F2 = 10 mg/kg, L = Losartan potassium 10 mg/kg, V = Valsartan 10 mg/kg, A1 = Amlodipine besylate 0.5 mg/kg, A2 = 1.6 mg/kg
From the text: This study is intended to examine antihypertensive action of individual drugs. For this purpose, test drugs, i.e., Fimasartan potassium trihydrate, Losartan potassium salt, Valsartan, Amlodipine besylate, a combination of Fimasartan potassium trihydrate with Amlodipine besylate, a combination of Losartan potassium salt with Amlodipine besylate, and a combination of Valsartan with Amlodipine besylate were repeatedly and orally administered for 4 weeks to rats with essential hypertension. […] In this manner, the antihypertensive action was compared and evaluated between the individual drugs.
8-week old male spontaneously hypertensive rats (SHR), weighing 230 to 250 g, were purchased from Charles River Japan (CRJ). The animals were used in the test, after being subjected to an acclimation period until the animals were 18 to 19-week old (340 to 380 g) to reach a mean blood pressure of 160 to 170 mmHg. Animals with a good condition were selected by minute observation over the acclimation period prior to the test, and divided into individual test groups, each consisting of 8 animals (n=8). Only the selected animals, from which a rise in blood pressure was confirmed using a non-invasive blood pressure monitoring system (CODA-6), were assigned to the test group.
Low, medium and high doses of the drugs according to individual drugs were established in the preliminary test. […] All the doses referred to those used in the already performed test. Doses and drug-administered groups used in the final main test are as follows.
As an ARB compound, Losartan potassium salt, Valsartan and Fimasartan potassium trihydrate were respectively purchased and used from Zhejiang Huahai Pharmaceutical Co., Ltd. 10 mg/kg of Losartan potassium salt was taken as an L group, and 10 mg/kg of Valsartan was taken as a V group. With regard to Fimasartan potassium trihydrate, 3 mg/kg was taken as an F1 group, and 10 mg/kg was taken as an F2 group.
As a calcium channel blocker, Amlodipine besylate (home-made by the method described in U.S. Pat. No. 4,572,909) was used. 0.5 mg/kg of Amlodipine besylate was taken as an A 1 group, and a dose of 1.6 mg/kg was taken as an A2 group. The test materials and the comparative drugs were each suspended in 0.5% carboxymethylcellulose sodium salt (CMC—Na, Sigma) prior to using. As a control group, 0.5% CMC alone was administered.
{circumflex over (3)} Test Method • Administration: Upon carrying out the administration, the drug preparation was heated to a suitable temperature of 35° in a water bath, followed by forced oral administration of 5 mL/kg via a stomach sonde. • Measurement of blood pressure: Blood pressure of rats was measured as follows. Rats were restrained and placed in a heating device which was then heated to a temperature of about 40° (based on the temperature of 37° in a restraining cage) over 13 minutes, such that the tail blood vessels were engorged, and the blood pressure of rats was measured using CODA-6 equipment that monitors a blood pressure by means of the software of the main body through a pair of cuffs attached to the tail. The non-invasive blood pressure measuring method via CODA-6 (Kent Scientific Corporation) enables a long-term blood pressure measuring test that should involve repeated administration of test materials, which is not feasible with a direct blood pressure measuring method through arterial cannulation, such as conventionally used physiograph or power lab.
Changes in blood pressure were confirmed with focusing on changes in mean arterial pressure (MAP), and changes in diastolic and systolic blood pressure, heart rate, and body weight were used as references for other changes in the experimental results.

[2] = tested on: patients with mild to moderate essential hypertension; settings: Week 12 of drug administration, dose 60 mg to 120 mg; cited from earlier work

| Structure (SMILES) | Antihypertensive degree with consecutive 4-week administration of drugs, as compared to blood pressure prior to administration (Mean) [1] | other results |
| --- | --- | --- |
| CCOC(=O)C1=C(COCCN)NC(C)=C(C(=O)OC)C1c1ccccc1Cl (single isomer, unassigned) [Comparative Example 5, Amlodipine besylate] | −13 mmHg |  |
| CCCCc1nc(C)c(CC(=S)N(C)C)c(=O)n1Cc1ccc(-c2ccccc2-c2nnn[nH]2)cc1 [Comparative Example 2, Fimasartan potassium trihydrate] |  | Antihypertensive degree with consecutive 4-week administration of drugs, as compared to blood pressure prior to administration (Mean) ([1]; potassium trihydrate): −50 mmHg |
| CCCCc1nc(C)c(CC(=S)N(C)C)c(=O)n1Cc1ccc(-c2ccccc2-c2nnn[nH]2)cc1 [Comparative Example 1, Fimasartan potassium trihydrate] |  | Antihypertensive effect compared to Comparative Example 3 and Comparative Example 4 ([1]; 3 mg/kg Fimasartan potassium trihydrate vs 10 mg/kg Losartan potassium or Valsartan): superior antihypertensive effect; Antihypertensive degree with consecutive 4-week administration of drugs, as compared to blood pressure prior to administration (Mean) ([1]; potassium trihydrate): −35 mmHg |
| CCOC(=O)C1=C(COCCN)NC(C)=C(C(=O)OC)C1c1ccccc1Cl (single isomer, unassigned) [Comparative Example 6, Amlodipine besylate] | −20 mmHg |  |
| CCCCc1nc(Cl)c(CO)n1Cc1ccc(-c2ccccc2-c2nn[nH]n2)cc1 [Losartan] |  | Change in diastolic blood pressure (DBP) in the sitting position relative to baseline [2]: −8.56±7.72 mmHg |
| CCCCc1nc(Cl)c(CO)n1Cc1ccc(-c2ccccc2-c2nn[nH]n2)cc1 [Comparative Example 3, Losartan potassium salt] | −20 mmHg |  |
| CCCCC(=O)N(Cc1ccc(-c2ccccc2-c2nnn[nH]2)cc1)[C@H](C(=O)O)C(C)C [Comparative Example 4, Valsartan] | −32 mmHg |  |
